Source: patent US5831115A, “Inhibitors of squalene synthase and protein farnesyltransferase” (Abbott Laboratories, priority 1996, dated 1998)

Each compound was assayed against T1, Rat liver microsomal squalene synthase (Rattus norvegicus, UniProt Q02769) (assay: In vitro Inhibition of Squalene Synthase (rat liver microsomal, radioactive farnesyl diphosphate substrate)). Details: rat liver microsomes.
T1 construct: Rat liver microsomes, the source of enzyme, were prepared; from tissue; host or cells: rat liver microsomes
T1 sequence (Q02769 1-416): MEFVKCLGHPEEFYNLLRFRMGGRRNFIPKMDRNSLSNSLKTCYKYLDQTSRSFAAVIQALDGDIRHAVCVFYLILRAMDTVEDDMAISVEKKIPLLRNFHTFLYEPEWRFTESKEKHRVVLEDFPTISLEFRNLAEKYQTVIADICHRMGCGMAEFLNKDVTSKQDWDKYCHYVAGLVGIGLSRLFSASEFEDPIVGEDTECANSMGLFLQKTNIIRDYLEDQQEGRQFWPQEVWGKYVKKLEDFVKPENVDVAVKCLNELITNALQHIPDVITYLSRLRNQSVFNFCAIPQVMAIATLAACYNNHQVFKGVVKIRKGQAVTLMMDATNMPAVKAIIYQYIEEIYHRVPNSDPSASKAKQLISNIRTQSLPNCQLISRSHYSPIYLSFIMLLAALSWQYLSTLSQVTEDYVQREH
Format: biochemical
Description: In vitro inhibition of squalene synthase may be measured by the following procedure.
Rat liver microsomal squalene synthase activity was measured using radioactive farnesyl diphosphate as a substrate and quantitating squalene synthesis by counting the radioactive squalene formed.
Rat liver microsomes, the source of enzyme, were prepared according to the method of Gillies, P. J., et al., Exp. Molc. Pathol. 44: 329-339 (1986), a modification of the procedure of Erickson, S. K., and Cooper, A. D., Metabolism, 29: 991-996 (1980). Approximately 30 μg of microsomal protein was incubated for 10 minutes at 37° C. with […] of ^3 H-farnesyl diphosphate, 49 mCi/mmol, and test compound in the presence of squalene (2 μL), Mg++, KF, reduced B-nicotinamide adenine dinucleotide phosphate, dithiothreitol, and K2 PO4, pH 7.35, in a total volume of 200 μL. Oxygen was excluded from the closed incubation tube by degassing with nitrogen. The reaction was terminated by the addition of ethanolic KOH and after degassing with N2, the microsomal membranes were solubilized by heating at 60° C. for 30 minutes. The squalene was extracted into hexane, and the squalene was separated from all other radioactive molcules by passage over an activated alumina column. The solution was collected in scintillation vials, evaporated to dryness, liquid scintillation fluid was added, and the radioactivity was determined in a liquid scintillation counter. The percent inhibition at a dose of 1 μM compared to controls with no test compound was determined.

inhibition at 1 µM [%]	% Inhibition at 1 μM [%]	SMILES
98	–	COC(=O)[C@@H]1[C@H](C(=O)O)[C@@H](C(=O)O)[C@H]1C(=O)N[C@@H](C)[C@@H](Cc1ccc(Cl)c(Cl)c1)OC(=O)c1ccc2ccccc2c1 [Example 23, (1S,2R,3S,4R)-3-Methoxycarbonyl-4-[N-{(2S,3R)-4-(3,4-dichlorophenyl)-3-(2-naphthoyloxy)-2-butyl}aminocarbonyl]cyclobutane-1,2-dicarboxylic acid]
67	–	CC(C=CCCCN(Cc1ccccc1)C(=O)C1C(C(=O)O)C(C(=O)O)C1C(=O)O)CCCc1ccccc1 [Example 45, (1α,2α,3β,4β)-4-{N-Benzyl-N-[(R)-6-methyl-9-phenyl-(E)-4-nonenyl]aminocarbonyl}cyclobutane-1,2,3-tricarboxylic acid]
63	–	CCCN(CCCC(OC(=O)c1ccc2ccccc2c1)C(C)Cc1ccccc1)C(=O)C1C(C(=O)O)C(C(=O)O)C1C(=O)O (stereo not drawn) [Example 43, (1α,2β,3β,4α)-4-{N-Propyl-N-[(4S*,5S*)-(5-methyl-4-napthoyloxy)-6-phenylhexyl]aminocarbonyl}cyclobutane-1,2,3-tricarboxylic acid]
35	–	C[C@H](NC(=O)[C@H]1[C@H](C(=O)O)[C@H](C(=O)O)[C@H]1C(=O)O)[C@@H](Cc1ccc(Cl)c(Cl)c1)OC(=O)c1ccc2ccccc2c1 [Example 25, (1S,2S,3S,4R)-4-[N-{(2S,3R)-4-(3,4-Dichlorophenyl)-3-(2-naphthoyloxy)-2-butyl}aminocarbonyl]cyclobutane-1,2,3-tricarboxylic acid]
25	–	CCCN(CCCC=CC(C)CCCc1ccccc1)C(=O)C1C(C(=O)O)C(C(=O)O)C1C(=O)O [Example 44, (1α,2α,3β,4β)-4-{N-Propyl-N-[(R)-6-methyl-9-phenyl-(E)-4-nonenyl]aminocarbonyl}cyclobutane-1,2,3-tricarboxylic acid]
90	–	C[C@H](NC(=O)C1CCC1C(=O)O)[C@H](Cc1ccc(Cl)cc1)c1ccc(-c2ccccc2)cc1 (stereo partly drawn) [Example 37, 2-[N-{(2S,3R)-4-(4-Chlorophenyl)-3-(4-biphenylyl)-2-butyl}aminocarbonyl]cyclobutane-1-carboxylic acid]
52	–	C[C@H](NC(=O)[C@H]1[C@@H](C(=O)O)[C@H](C(=O)O)[C@@H]1C(=O)O)[C@@H](Cc1ccc(Cl)c(Cl)c1)OC(=O)c1ccc2ccccc2c1 [Example 26, (1R,2R,3R,4S)-4-[N-{(2S,3R)-4-(3,4-Dichlorophenyl)-3-(2-naphthoyloxy)-2-butyl}aminocarbonyl]cyclobutane-1,2,3-tricarboxylic acid]
98	–	COC(=O)[C@@H]1[C@@H](C(=O)O)[C@@H](C(=O)O)[C@@H]1C(=O)N[C@@H](C)[C@@H](Cc1ccc(Cl)c(Cl)c1)OC(=O)c1ccc2ccccc2c1 [Example 27, (1S,2S,3S,4S)-3-Methoxycarbonyl-4-[N-{(2S,3R)-4-(3,4-dichlorophenyl)-3-(2-naphthoyloxy)-2-butyl}aminocarbonyl]cyclobutane-1,2-dicarboxylic acid]
94	–	CC(NC(=O)[C@H]1C[C@H](C(=O)O)[C@H]1C(=O)O)C(Cc1ccc(Cl)cc1)c1ccc(-c2ccccc2)cc1 (relative stereo) [Example 34, (1β,2α,3α)-3-[N-{(2S,3R)-4-(4-chlorophenyl)-3-(4-biphenylyl)-2-butyl}aminocarbonyl]cyclobutane-1,2-dicarboxylic acid]
53	–	O=C(O)[C@H]1[C@H](C(=O)O)[C@H](C(=O)O)[C@H]1C(=O)N(Cc1ccc(Oc2ccccc2)cc1)Cc1ccc(Cl)c(Cl)c1 (relative stereo) [Example 46]
–	80	C[C@H](NC(=O)C1CC(CO)C1C(=O)[O-])[C@H](Cc1ccc(Cl)cc1)c1ccc(-c2ccccc2)cc1.[Na+] (mixture of isomers) [Example 41, (±)-(1α,2β,4α)-2-[N-{(2S,3R)-4-(4-Chlorophenyl)-3-(4-biphenylyl)-2-butyl}aminocarbonyl]-4-hydroxymethylcyclobutane-1-carboxylic acid sodium salt]
47	–	O=C(O)[C@H]1[C@H](C(=O)O)[C@H](C(=O)O)[C@H]1C(=O)N(CCCCCCCCCCc1ccccc1)Cc1ccccc1 (relative stereo) [Example 35, (1β,2β,3α,4α)-4-[N-Benzyl-N-(10-phenyldecyl)aminocarbonyl]cyclobutane-1,2,3-tricarboxylic acid]
27	–	COC(=O)[C@H]1[C@@H](C(=O)O)[C@H](C(=O)O)[C@@H]1C(=O)N[C@@H](C)[C@@H](Cc1ccc(Cl)c(Cl)c1)OC(=O)c1ccc2ccccc2c1 [Example 24]

What follows are compounds tested against T1, Rat liver microsomal squalene synthase in the same assay as above. Details: 0.15 μM (footnote *); rat liver microsomes.
Format: biochemical

inhibition at 0.15 µM [%]	SMILES
81	CC(NC(=O)C1C(C(=O)O)C(C(=O)O)C1C(=O)O)C(Cc1ccc(Cl)cc1)c1ccc(-c2ccccc2)cc1 [Example 29, (1α,2α,3α,4α)-4-[N-{(2S,3R)-4-(4-chlorophenyl)-3-(4-biphenylyl)-2-butyl}aminocarbonyl]cyclobutane-1,2,3-tricarboxylic acid]

These compounds were tested against T2, Rat brain protein farnesyltransferase (Rattus norvegicus, UniProt Q02293+Q04631) (assay: In vitro Inhibition of Protein Farnesyltransferase (scintillation proximity assay, biotin-K Ras B fragment)). Details: rat brain enzyme.
T2 construct: Rat brain protein farnesyltransferase activity was measured; from tissue; host or cells: rat brain; partially purified by steps one through three of Reiss et al., Cell 62:81-88 (1990)
Format: biochemical
Description: In vitro inhibition of protein farnesyltransferase may be measured by the following procedure. (Procedures for determination of the inhibition of farnesylation of the oncogene protein Ras are described by Goldstein, et al., J. Biol. Chem., 266:15575-15578 (1991) and by Singh in U.S. Pat. No. 5,245,061 both of which are incorporated herein by reference.)
Rat brain protein farnesyltransferase activity was measured using an Amersham Life Science commercial scintillation proximity assay kit and substituting a biotin-K Ras B fragment (biotin-Lys-Lys-Ser-Lys-Thr-Lys-Cys-Val-lle-Met-CO2 H), 0.1 μM final concentration, for the biotin-lamin substrate provided by Amersham. The enzyme was purified according to Reiss, Y., et al., Cell, 62:81-88 (1990), utilizing steps one through three. The specific activity of the enzyme was approximately 10 nmol substrate farnesylated/mg enzyme/hour. […]

inhibition at 1 µM [%]	SMILES
89	O=C(O)[C@@H]1[C@H](C(=O)O)[C@@H](C(=O)O)[C@H]1C(=O)N(Cc1ccc(Oc2ccccc2)cc1)Cc1cccs1 (relative stereo) [Example 6, (1α,2β,3β,4α)-1-[N-(Thien-2-ylmethyl)-N-(4-phenoxybenzyl)aminocarbonyl]cyclobutane-2,3,4-tricarboxylic acid]
45	O=C(OCc1ccccc1)[C@@H]1[C@H](C(=O)O)[C@@H](C(=O)OCc2ccccc2)[C@H]1C(=O)N(Cc1ccccc1)Cc1ccc(Oc2ccccc2)cc1 (relative stereo) [Example 3, (1α,2β,3β,4α)-1-[N-Benzyl-N-(4-phenoxybenzyl)aminocarbonyl]-2,4-di(benzyloxycarbonyl)cyclobutane-3-carboxylic acid]
79	COC(=O)[C@H]1[C@@H](C(=O)O)[C@H](C(=O)N(Cc2ccccc2)Cc2ccc(Oc3ccccc3)cc2)[C@@H]1C(=O)O (relative stereo) [Example 8, (1α,2β,3β,4α)-1-[N-Benzyl-N-(4-phenoxybenzyl)aminocarbonyl]-3-(methyloxycarbonyl)cyclobutane-2,4-dicarboxylic acid]
99	O=C(O)[C@@H]1[C@H](C(=O)O)[C@@H](C(=O)O)[C@H]1C(=O)N(Cc1ccccc1)Cc1ccc(Oc2ccccc2)cc1 (relative stereo) [Example 4, (1α,2β,3β,4α)-1-[N-Benzyl-N-(4-phenoxybenzyl)aminocarbonyl]cyclobutane-2,3,4-tricarboxylic acid]
92	CC(Cc1ccccc1)C(O)CCCN(Cc1ccccc1)C(=O)C1C(C(=O)O)C(C(=O)O)C1C(=O)O (stereo not drawn) [Example 1, (1α,2β,3β,4α)-1-[N-Benzyl-N-{(4S*,5S*)-(4-hydroxy-5-methyl)-6-phenylhexyl}aminocarbonyl]cyclobutane-2,3,4-tricarboxylic acid]
21	O=C(OCc1ccccc1)[C@@H]1[C@H](C(=O)O)[C@@H](C(=O)OCc2ccccc2)[C@H]1C(=O)N(Cc1ccc(Oc2ccccc2)cc1)Cc1cccs1 (relative stereo) [Example 5, (1α,2β,3β,4α)-1-[N-(Thien-2-ylmethyl)-N-(4-phenoxybenzyl)aminocarbonyl]-2,4-di(benzyloxycarbonyl)cyclobutane-3-carboxylic acid]
